Experimental data from patent US9556158B2, “Fungicidal 3-[(pyridin-2-ylmethoxyimino)(phenyl)methyl]-2-substituted-1,2,4-oxadiazol-5(2H)-one derivatives” (BAYER INTELLECTUAL PROPERTY GMBH, priority 2011, dated 2017).

Conditions: HPLC on reversed phase columns, pH 2.7, 0.1% formic acid in water / acetonitrile gradient
`Cn1oc(=O)nc1C(=NOCc1cccc(NC(=O)OC(C)(C)C)n1)c1cccc(F)c1F` [Example 187] showed a LogP of 3.33.

Same assay, conditions: pH 2.7, LogP, HPLC on reversed phase columns, pH 2.7, 0.1% formic acid in water / acetonitrile gradient
With `Cc1cccc(C(=NOCc2cccc(NC(=O)Cc3ccccc3)n2)c2nc(=O)on2C)c1` [Example 81] the chromatographic logP was 3.23.
With `Cn1oc(=O)nc1C(=NOCc1cccc(NC(=O)OCCCC2CCCCC2)n1)c1ccccc1` [Example 153] the chromatographic logP was 5.06.
Work on `COc1cccc(C(=NOCc2cccc(NC(=O)CCc3ccccc3)n2)c2nc(=O)on2C)c1` [Example 164] yielded a chromatographic logP of 3.27.
In the case of `C#CCCOC(=O)Nc1cccc(CON=C(c2cccc(F)c2F)c2nc(=O)on2C)n1` [Example 189], the chromatographic logP is reported as 2.78.
`CC(C)CCOC(=O)Nc1cccc(CON=C(c2ccccc2)c2nc(=O)on2C)n1` [Example 161] gave a chromatographic logP of 3.74.
`Cn1oc(=O)nc1C(=NOCc1cccc(NC(=O)c2ccc(F)cc2)n1)c1ccccc1` [Example 157] showed a chromatographic logP of 3.04.
For `Cn1oc(=O)nc1C(=NOCc1cccc(NC(=O)CCC2CCCC2)n1)c1ccccc1` [Example 145], the chromatographic logP was 3.72.
In the case of `Cn1oc(=O)nc1C(=NOCc1cccc(NC(=O)OC(C)(C)C)n1)c1cccc(F)c1F` [Example 113], the chromatographic logP is reported as 3.39.
`Cn1oc(=O)nc1C(=NOCc1cccc(N)n1)c1cccc(F)c1F` [Example 192] gave a chromatographic logP of 0.96.
For `COc1cccc(C(=NOCc2cccc(NC(=O)c3ccccc3)n2)c2nc(=O)o[nH]2)c1` [Example 67], the chromatographic logP was 2.96.
Compound `C/C=C/CCCOC(=O)Nc1cccc(CON=C(c2ccccc2)c2nc(=O)on2C)n1` [Example 183] has a chromatographic logP of 3.81.
In the case of `C#CCCCOC(=O)Nc1cccc(CON=C(c2ccccc2)c2nc(=O)on2C)n1` [Example 122], the chromatographic logP is reported as 2.94.
`Cc1cccc(C(=NOCc2cccc(NC(=O)CCc3ccccc3)n2)c2nc(=O)on2C)c1` [Example 79] gave a chromatographic logP of 3.48.
Work on `Cc1cccc(C(=O)Nc2cccc(CON=C(c3ccccc3)c3nc(=O)on3C)n2)c1` [Example 128] yielded a chromatographic logP of 3.27.
Compound `CC(C)CC(=O)Nc1cccc(CON=C(c2cccc(F)c2)c2nc(=O)on2C)n1` [Example 90] has a chromatographic logP of 2.92.
For `Cn1oc(=O)nc1C(=NOCc1cccc(NC(=O)OCCC2CCCC2)n1)c1ccccc1` [Example 118], the chromatographic logP was 4.26.
Compound `COc1cccc(C(=O)Nc2cccc(CON=C(c3ccccc3)c3nc(=O)on3C)n2)c1` [Example 132] has a chromatographic logP of 3.02.
In the case of `Cn1oc(=O)nc1C(=NOCc1cccc(NC(=O)COc2ccccc2)n1)c1ccccc1` [Example 139], the chromatographic logP is reported as 3.13.
`COc1cccc(C(=O)Nc2cccc(CON=C(c3cccc(C)c3)c3nc(=O)on3C)n2)c1` [Example 88] gave a chromatographic logP of 3.31.
With `C#CCOC(=O)Nc1cccc(CON=C(c2cccc(OC)c2)c2nc(=O)on2C)n1` [Example 95] the chromatographic logP was 2.63.
With `Cn1oc(=O)nc1C(=NOCc1cccc(NC(=O)C2(C)CCCCC2)n1)c1ccccc1` [Example 136] the chromatographic logP was 3.68.
Work on `COCCn1oc(=O)nc1C(=NOCc1cccc(NC(=O)OC(C)(C)C)n1)c1ccccc1` [Example 42] yielded a chromatographic logP of 3.61.
In the case of `Cn1oc(=O)nc1C(=NOCc1cccc(NC(=O)OCC(C)(C)C)n1)c1ccccc1` [Example 121], the chromatographic logP is reported as 3.7.
For `Cc1cccc(C(=NOCc2cccc(NC(=O)OCCc3ccccc3)n2)c2nc(=O)on2C)c1` [Example 168], the chromatographic logP was 3.85.
For `COc1ccc(OC(=O)Nc2cccc(CON=C(c3ccccc3)c3nc(=O)on3C)n2)cc1` [Example 185], the chromatographic logP was 3.15.
In the case of `COc1cccc(C(=NOCc2cccc(NC(=O)OCCc3ccccc3)n2)c2nc(=O)on2C)c1` [Example 162], the chromatographic logP is reported as 3.61.
For `CC(OC(=O)Nc1cccc(CON=C(c2ccccc2)c2nc(=O)on2C)n1)C1CCCC1` (stereo not shown) [Example 179], the chromatographic logP was 4.15.
With `Cc1cccc(C(=NOCc2cccc(NC(=O)Cc3cccc(F)c3)n2)c2nc(=O)on2C)c1` [Example 98] the chromatographic logP was 3.31.
`CC#CCOC(=O)Nc1cccc(CON=C(c2ccccc2)c2nc(=O)on2C)n1` [Example 134] gave a chromatographic logP of 2.84.
For `Cc1ccc(C(=O)Nc2cccc(CON=C(c3ccccc3)c3nc(=O)on3C)n2)cc1` [Example 159], the chromatographic logP was 3.23.
`Cn1oc(=O)nc1/C(=N\OCc1cccc(Br)n1)c1ccccc1` [Example 193, 3-[(Z)-{[(6-bromopyridin-2-yl)methoxy]imino}(phenyl)methyl]-2-methyl-1,2,4-oxadiazol-5(2H)-one] gave a chromatographic logP of 2.75.
In the case of `CCn1oc(=O)nc1C(=NOCc1cccc(N)n1)c1ccccc1` [Example 111], the chromatographic logP is reported as 1.07.
`Cn1oc(=O)nc1C(=NOCc1cccc(NC(=O)OCC2CC2)n1)c1ccccc1` [Example 180] showed a chromatographic logP of 3.04.
`Cn1oc(=O)nc1C(=NOCc1cccc(NC(=O)OCC2CCCCC2)n1)c1ccccc1` [Example 127] gave a chromatographic logP of 4.24.
In the case of `Cc1cccc(C(=NOCc2cccc(NC(=O)OCCC(C)C)n2)c2nc(=O)on2C)c1` [Example 91], the chromatographic logP is reported as 4.03.
`CCC(C)(C)C(=O)Nc1cccc(CON=C(c2ccccc2)c2nc(=O)on2C)n1` [Example 176] showed a chromatographic logP of 3.17.
`Cn1oc(=O)nc1C(=NOCc1cccc(NC(=O)OCCC2CCCCC2)n1)c1ccccc1` [Example 158] gave a chromatographic logP of 4.63.
`C#CCCCCOC(=O)Nc1cccc(CON=C(c2ccccc2)c2nc(=O)on2C)n1` [Example 124] showed a chromatographic logP of 3.21.
Work on `CCCCCC(=O)Nc1cccc(CON=C(c2ccccc2)c2nc(=O)on2CC)n1` [Example 174] yielded a chromatographic logP of 3.52.
With `COc1cccc(C(=NOCc2cccc(NC(=O)c3ccc(F)cc3)n2)c2nc(=O)o[nH]2)c1` [Example 62] the chromatographic logP was 3.09.
In the case of `Cn1oc(=O)nc1C(=NOCc1cccc(NC(=O)OCCCCCl)n1)c1ccccc1` [Example 143], the chromatographic logP is reported as 3.27.
Work on `CC#CCCOC(=O)Nc1cccc(CON=C(c2ccccc2)c2nc(=O)on2C)n1` [Example 156] yielded a chromatographic logP of 3.
Compound `Cn1oc(=O)nc1C(=NOCc1cccc(NC(=O)c2csc3ccccc23)n1)c1ccccc1` [Example 142] has a chromatographic logP of 3.65.
Compound `CCCCCCC(=O)Nc1cccc(CON=C(c2ccccc2)c2nc(=O)on2C)n1` [Example 120] has a chromatographic logP of 3.65.
For `COc1cccc(C(=NOCc2cccc(NC(=O)Cc3ccccc3)n2)c2nc(=O)on2C)c1` [Example 166], the chromatographic logP was 3.02.
With `C#CCCCC(=O)Nc1cccc(CON=C(c2ccccc2)c2nc(=O)on2C)n1` [Example 149] the chromatographic logP was 2.6.
`COc1cccc(C(=NOCc2cccc(NC(=O)c3cccc(C)c3)n2)c2nc(=O)o[nH]2)c1` [Example 61] gave a chromatographic logP of 3.31.
Compound `C=CCC(C)OC(=O)Nc1cccc(CON=C(c2ccccc2)c2nc(=O)on2C)n1` (stereo not shown) [Example 152] has a chromatographic logP of 3.39.
For `CC#CCC(C)OC(=O)Nc1cccc(CON=C(c2ccccc2)c2nc(=O)on2C)n1` (stereo not shown) [Example 151], the chromatographic logP was 3.31.
For `Cc1ccc(C(=O)Nc2cccc(CON=C(c3cccc(F)c3)c3nc(=O)o[nH]3)n2)cc1` [Example 77], the chromatographic logP was 3.33.
With `CCCCC(C)C(=O)Nc1cccc(CON=C(c2ccccc2)c2nc(=O)on2C)n1` (stereo not shown) [Example 144] the chromatographic logP was 3.55.
For `Cn1oc(=O)nc1C(=NOCc1cccc(NC(=O)C2CCCC2)n1)c1ccccc1` [Example 117], the chromatographic logP was 2.98.
`COc1ccc(CC(=O)Nc2cccc(CON=C(c3cccc(F)c3F)c3nc(=O)on3C)n2)cc1` [Example 191] showed a chromatographic logP of 2.98.
Work on `Cn1oc(=O)nc1C(=NOCc1cccc(NC(=O)c2ccccc2)n1)c1cccc(F)c1` [Example 89] yielded a chromatographic logP of 3.
In the case of `Cn1oc(=O)nc1C(=NOCc1cccc(NC(=O)OCc2ccccc2Cl)n1)c1ccccc1` [Example 184], the chromatographic logP is reported as 3.76.
In the case of `C#CCOC(=O)Nc1cccc(CON=C(c2cccc(C)c2)c2nc(=O)on2C)n1` [Example 108], the chromatographic logP is reported as 2.84.
`Cn1oc(=O)nc1C(=NOCc1cccc(NC(=O)OCCc2ccccc2)n1)c1cccc(F)c1F` [Example 190] gave a chromatographic logP of 3.62.
For `COc1cccc(C(=NOCc2cccc(NC(=O)C(C)(C)C)n2)c2nc(=O)on2C)c1` [Example 93], the chromatographic logP was 2.92.
`COc1cccc(C(=NOCc2cccc(N)n2)c2nc(=O)on2C)c1` [Example 24] showed a chromatographic logP of 1.03.
With `CCCCOC(=O)Nc1cccc(CON=C(c2cccc(F)c2F)c2nc(=O)on2C)n1` [Example 188] the chromatographic logP was 3.46.

Same assay, conditions: pH 2.7, LogP, HPLC on reversed phase columns, pH 2.7, 0.1% formic acid in water / acetonitrile gradient; compounds of formula (V), Table 2
For `CCN(O)C(=N)/C(=N\OCc1cccc(NC(=O)OC(C)(C)C)n1)c1ccccc1` [Example V-08, tert-butyl (6-{[({(1Z)-2-[hydroxy(ethyl)amino]-2-imino-1-(phenyl)ethylidene}amino)oxy]methyl}pyridin-2-yl)carbamate], the chromatographic logP was 1.9.
For `CN(O)C(=N)/C(=N\OCc1cccc(Br)n1)c1ccccc1` [Example V-12, (2Z)-2-{[(6-bromopyridin-2-yl)methoxy]imino}-N-hydroxy-N-methyl-2-phenylethanimidamide], the chromatographic logP was 1.39.
For `CN(O)C(=N)C(=NOCc1cccc(NC(=O)OC(C)(C)C)n1)c1cccc(F)c1F` [Example V-10], the chromatographic logP was 1.9.
In the case of `C#CCCOC(=O)Nc1cccc(CO/N=C(\C(=N)N(C)O)c2ccccc2)n1` [Example V-01, but-3-yn-1-yl (6-{[({(1Z)-2-[hydroxy(methyl)amino]-2-imino-1-phenylethylidene}amino)oxy]methyl}pyridin-2-yl)carbamate], the chromatographic logP is reported as 1.63.
Compound `CN(O)C(=N)C(=NOCc1cccc(NC(=O)OC(C)(C)C)n1)c1ccccc1C(F)F` [Example V-11] has a chromatographic logP of 2.43.
For `CN(O)C(=N)C(=NOCc1cccc(N)n1)c1ccccc1` [Example V-03], the chromatographic logP was 0.22.
In the case of `CN(O)C(=N)/C(=N\OCc1cccc(NC(=O)OC(C)(C)C)n1)c1cccc(F)c1` [Example V-05, tert-butyl (6-{[({(1Z)-2-[hydroxy(methyl)amino]-2-imino-1-(3-fluorophenyl)ethylidene}amino)oxy]methyl}pyridin-2-yl)carbamate], the chromatographic logP is reported as 1.86.
Compound `CC(C)N(O)C(=N)C(=NOCc1cccc(NC(=O)OC(C)(C)C)n1)c1ccccc1` [Example V-09] has a chromatographic logP of 2.05.
`Cc1cccc(C(=NOCc2cccc(NC(=O)OC(C)(C)C)n2)C(=N)N(C)O)c1` [Example V-04] showed a chromatographic logP of 1.93.
